The record followed here is ChEMBL document CHEMBL4507276 (2021).

The target of data set [1] is C-C chemokine receptor type 2 (Homo sapiens) (UniProt P41597). In words: CCR2/H AG Cerep selectivity data (BI). Conditions: filed as agonist, Compound concentration 20.0 uM; call rule not given here.
The target of data set [2] is Prostaglandin G/H synthase 2 (Homo sapiens) (UniProt P35354). Put plainly: COX2_HU Cerep selectivity data (BI). As to conditions: Compound concentration 20.0 uM.
In data set [3] the target is Guanylate cyclase soluble subunit alpha-1 (Bos taurus) (UniProt P19687). In words: GUACYCBASAL Cerep selectivity data (BI). Conditions: Homo sapiens; Compound concentration 20.0 uM.
In data set [4] the target is xanthine dehydrogenase/oxidase (Bos taurus, UniProt P80457). Put plainly: SUPOXXANOXID Cerep selectivity data (BI). Also noted: mode of action inhibitor. Conditions: cattle, xanthine oxidase enzyme assay; compound concentration 20 uM; read-out: % Ctrl.
Data set [5] addresses Thyroid hormone receptor alpha (Rattus norvegicus) (UniProt P63059). Put plainly: TRTH_AGON Cerep selectivity data (BI). As to conditions: filed as agonist, Compound concentration 20.0 uM.
The target of data set [6] is T1, Mitogen-activated protein kinase kinase kinase kinase 2 (Homo sapiens) (UniProt Q12851).
T1 sequence (whole entry): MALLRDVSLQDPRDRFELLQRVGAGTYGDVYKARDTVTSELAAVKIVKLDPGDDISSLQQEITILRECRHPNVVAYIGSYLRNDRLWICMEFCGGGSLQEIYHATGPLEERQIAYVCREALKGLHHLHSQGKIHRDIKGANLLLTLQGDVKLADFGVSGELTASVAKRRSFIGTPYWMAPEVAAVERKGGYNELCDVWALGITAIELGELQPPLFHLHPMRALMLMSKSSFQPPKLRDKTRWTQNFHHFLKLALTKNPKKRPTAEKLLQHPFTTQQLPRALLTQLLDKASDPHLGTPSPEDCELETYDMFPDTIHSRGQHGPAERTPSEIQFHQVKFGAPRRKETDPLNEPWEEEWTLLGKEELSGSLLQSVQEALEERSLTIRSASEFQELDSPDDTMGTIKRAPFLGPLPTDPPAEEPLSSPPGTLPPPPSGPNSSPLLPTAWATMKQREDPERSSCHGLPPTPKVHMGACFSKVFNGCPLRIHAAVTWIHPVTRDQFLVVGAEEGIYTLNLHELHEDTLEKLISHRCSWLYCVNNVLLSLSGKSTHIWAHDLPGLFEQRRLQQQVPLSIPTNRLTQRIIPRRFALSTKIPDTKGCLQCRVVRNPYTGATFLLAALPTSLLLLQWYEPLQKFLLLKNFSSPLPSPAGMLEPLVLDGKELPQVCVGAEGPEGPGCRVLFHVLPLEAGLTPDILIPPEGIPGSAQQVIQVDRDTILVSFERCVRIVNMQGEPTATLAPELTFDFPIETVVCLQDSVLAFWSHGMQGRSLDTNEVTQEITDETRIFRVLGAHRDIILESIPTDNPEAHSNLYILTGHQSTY
Put plainly: MAP4K2 Invitrogen selectivity data (BI). As to conditions: Compound concentration 3.0 uM.

Data set [7] addresses Mitogen-activated protein kinase 10 (Homo sapiens) (UniProt P53779). In words: MAPK10 Invitrogen selectivity data (BI). As to conditions: Compound concentration 3.0 uM.
The target in data set [8] is T2, Mitogen-activated protein kinase 12 (Homo sapiens) (UniProt P53778).
T2 sequence (whole entry): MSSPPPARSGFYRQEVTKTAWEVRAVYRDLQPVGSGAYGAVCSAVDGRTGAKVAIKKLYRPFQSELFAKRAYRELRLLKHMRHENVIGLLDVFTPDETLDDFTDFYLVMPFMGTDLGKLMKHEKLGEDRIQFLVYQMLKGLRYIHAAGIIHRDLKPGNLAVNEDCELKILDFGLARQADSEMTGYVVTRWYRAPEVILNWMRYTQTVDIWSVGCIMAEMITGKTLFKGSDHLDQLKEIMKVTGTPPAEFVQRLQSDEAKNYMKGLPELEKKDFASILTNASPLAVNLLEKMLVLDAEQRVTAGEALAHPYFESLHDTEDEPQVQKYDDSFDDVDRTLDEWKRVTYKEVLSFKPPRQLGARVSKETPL
In words: MAPK12 Invitrogen selectivity data (BI). As to conditions: Compound concentration 3.0 uM.

For data set [9], the target named is T3, NUAK family SNF1-like kinase 1 (Homo sapiens) (UniProt O60285).
T3 sequence (whole entry): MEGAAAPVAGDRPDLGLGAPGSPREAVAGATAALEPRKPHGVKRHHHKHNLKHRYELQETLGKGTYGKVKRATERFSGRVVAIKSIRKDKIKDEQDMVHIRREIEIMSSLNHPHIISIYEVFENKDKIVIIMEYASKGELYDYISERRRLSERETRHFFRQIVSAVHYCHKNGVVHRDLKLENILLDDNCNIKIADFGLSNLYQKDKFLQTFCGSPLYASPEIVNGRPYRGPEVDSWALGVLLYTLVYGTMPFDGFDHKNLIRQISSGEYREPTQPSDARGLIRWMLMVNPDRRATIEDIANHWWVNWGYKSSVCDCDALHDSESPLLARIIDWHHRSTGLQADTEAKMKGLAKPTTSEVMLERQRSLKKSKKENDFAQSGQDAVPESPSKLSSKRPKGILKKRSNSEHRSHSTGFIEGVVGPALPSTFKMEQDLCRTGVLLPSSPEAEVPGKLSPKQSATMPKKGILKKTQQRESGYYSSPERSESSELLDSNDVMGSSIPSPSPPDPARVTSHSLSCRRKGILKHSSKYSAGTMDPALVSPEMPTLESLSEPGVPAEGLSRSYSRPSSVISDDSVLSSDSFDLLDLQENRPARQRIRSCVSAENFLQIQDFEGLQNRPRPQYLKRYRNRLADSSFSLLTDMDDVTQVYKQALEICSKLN
In words: NUAK1 Invitrogen selectivity data (BI). As to conditions: Compound concentration 3.0 uM.

Sequence of Mitogen-activated protein kinase 10 (Homo sapiens) (P53779 whole entry): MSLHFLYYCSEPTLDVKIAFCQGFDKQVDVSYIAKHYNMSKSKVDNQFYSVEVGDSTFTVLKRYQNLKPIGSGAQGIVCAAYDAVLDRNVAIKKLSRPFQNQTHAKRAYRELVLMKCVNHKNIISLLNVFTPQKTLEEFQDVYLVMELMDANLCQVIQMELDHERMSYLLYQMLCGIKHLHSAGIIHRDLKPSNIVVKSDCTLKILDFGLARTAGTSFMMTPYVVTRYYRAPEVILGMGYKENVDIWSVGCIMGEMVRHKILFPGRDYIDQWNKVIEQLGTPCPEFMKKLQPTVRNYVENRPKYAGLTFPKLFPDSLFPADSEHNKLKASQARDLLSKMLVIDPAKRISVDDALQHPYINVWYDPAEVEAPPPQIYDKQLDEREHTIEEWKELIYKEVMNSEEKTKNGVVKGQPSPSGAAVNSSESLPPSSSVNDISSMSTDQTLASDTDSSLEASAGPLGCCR
Sequence of Guanylate cyclase soluble subunit alpha-1 (Bos taurus) (P19687 whole entry): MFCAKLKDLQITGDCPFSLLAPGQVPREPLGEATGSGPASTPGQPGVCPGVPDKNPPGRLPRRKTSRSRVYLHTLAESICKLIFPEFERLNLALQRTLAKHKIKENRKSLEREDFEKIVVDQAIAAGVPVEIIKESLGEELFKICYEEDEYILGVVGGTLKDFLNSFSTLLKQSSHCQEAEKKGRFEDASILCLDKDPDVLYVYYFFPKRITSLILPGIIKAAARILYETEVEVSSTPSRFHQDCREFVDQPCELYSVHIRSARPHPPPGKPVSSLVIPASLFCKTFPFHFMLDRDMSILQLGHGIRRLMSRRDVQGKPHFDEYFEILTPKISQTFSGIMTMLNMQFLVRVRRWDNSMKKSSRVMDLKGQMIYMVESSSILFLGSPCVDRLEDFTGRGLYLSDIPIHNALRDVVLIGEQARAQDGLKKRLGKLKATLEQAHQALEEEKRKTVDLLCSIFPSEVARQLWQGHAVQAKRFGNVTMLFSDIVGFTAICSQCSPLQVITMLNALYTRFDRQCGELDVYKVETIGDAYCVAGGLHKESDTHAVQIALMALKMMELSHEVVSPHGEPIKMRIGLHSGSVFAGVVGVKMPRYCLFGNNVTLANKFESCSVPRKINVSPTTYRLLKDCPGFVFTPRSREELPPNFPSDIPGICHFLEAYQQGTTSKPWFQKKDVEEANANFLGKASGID
Sequence of xanthine dehydrogenase/oxidase (P80457 whole entry): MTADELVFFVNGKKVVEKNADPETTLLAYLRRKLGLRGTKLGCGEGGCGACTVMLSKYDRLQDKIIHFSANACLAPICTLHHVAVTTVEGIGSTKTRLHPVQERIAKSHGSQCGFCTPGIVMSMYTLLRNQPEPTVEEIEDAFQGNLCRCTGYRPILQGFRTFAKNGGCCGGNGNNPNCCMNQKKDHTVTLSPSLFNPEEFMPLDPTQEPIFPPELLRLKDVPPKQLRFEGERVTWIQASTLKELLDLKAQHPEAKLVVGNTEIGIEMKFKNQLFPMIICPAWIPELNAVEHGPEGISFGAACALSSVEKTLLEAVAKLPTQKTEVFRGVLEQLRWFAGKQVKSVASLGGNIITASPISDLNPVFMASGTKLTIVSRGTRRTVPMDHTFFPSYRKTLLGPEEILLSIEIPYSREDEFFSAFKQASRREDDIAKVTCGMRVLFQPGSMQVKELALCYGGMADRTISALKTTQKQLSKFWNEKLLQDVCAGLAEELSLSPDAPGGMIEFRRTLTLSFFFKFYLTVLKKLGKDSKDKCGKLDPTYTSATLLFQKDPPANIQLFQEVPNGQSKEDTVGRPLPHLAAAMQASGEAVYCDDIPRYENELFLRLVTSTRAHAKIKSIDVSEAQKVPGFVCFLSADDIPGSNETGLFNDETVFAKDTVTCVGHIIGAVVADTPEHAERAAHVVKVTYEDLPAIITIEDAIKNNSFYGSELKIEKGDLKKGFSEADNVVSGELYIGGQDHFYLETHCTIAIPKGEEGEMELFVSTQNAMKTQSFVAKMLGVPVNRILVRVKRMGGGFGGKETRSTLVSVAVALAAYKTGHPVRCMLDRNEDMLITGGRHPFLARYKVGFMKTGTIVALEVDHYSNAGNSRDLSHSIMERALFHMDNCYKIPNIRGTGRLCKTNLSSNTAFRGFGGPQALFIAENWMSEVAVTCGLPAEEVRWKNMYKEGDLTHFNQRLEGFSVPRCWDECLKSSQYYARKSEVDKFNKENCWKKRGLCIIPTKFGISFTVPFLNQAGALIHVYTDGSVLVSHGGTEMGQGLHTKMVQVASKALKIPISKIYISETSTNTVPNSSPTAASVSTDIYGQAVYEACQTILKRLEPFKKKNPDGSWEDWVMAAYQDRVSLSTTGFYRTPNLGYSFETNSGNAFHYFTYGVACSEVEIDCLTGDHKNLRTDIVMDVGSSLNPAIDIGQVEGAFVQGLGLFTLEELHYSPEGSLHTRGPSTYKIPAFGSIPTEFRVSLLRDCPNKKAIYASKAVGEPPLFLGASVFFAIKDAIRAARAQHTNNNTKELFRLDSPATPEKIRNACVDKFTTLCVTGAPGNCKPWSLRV
Sequence of Thyroid hormone receptor alpha (Rattus norvegicus) (P63059 whole entry): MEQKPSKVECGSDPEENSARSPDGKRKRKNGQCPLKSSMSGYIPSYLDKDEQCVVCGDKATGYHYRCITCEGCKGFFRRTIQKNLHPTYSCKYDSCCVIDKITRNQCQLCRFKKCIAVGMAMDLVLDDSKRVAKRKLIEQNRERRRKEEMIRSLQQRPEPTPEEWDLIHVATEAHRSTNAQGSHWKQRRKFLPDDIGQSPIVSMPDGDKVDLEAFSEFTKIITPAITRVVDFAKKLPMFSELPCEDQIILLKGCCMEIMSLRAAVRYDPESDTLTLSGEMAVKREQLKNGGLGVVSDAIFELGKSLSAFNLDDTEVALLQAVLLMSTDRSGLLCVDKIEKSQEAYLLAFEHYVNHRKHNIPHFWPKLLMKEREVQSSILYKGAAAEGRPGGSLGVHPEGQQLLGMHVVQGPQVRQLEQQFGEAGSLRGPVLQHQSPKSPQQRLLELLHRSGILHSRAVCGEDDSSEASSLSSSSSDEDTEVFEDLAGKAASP
Sequence of C-C chemokine receptor type 2 (Homo sapiens) (P41597 whole entry, looked up): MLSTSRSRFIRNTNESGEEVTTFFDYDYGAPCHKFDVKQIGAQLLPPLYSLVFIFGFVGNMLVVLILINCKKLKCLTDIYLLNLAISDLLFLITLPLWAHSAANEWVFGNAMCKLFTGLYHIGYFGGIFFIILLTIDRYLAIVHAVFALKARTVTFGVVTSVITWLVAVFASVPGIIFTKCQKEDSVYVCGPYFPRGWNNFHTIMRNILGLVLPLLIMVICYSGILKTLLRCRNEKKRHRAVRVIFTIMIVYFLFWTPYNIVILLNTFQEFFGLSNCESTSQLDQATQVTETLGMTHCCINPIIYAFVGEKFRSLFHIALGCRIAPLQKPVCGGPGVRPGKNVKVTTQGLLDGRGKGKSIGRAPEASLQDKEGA
Sequence of Prostaglandin G/H synthase 2 (Homo sapiens) (P35354 whole entry): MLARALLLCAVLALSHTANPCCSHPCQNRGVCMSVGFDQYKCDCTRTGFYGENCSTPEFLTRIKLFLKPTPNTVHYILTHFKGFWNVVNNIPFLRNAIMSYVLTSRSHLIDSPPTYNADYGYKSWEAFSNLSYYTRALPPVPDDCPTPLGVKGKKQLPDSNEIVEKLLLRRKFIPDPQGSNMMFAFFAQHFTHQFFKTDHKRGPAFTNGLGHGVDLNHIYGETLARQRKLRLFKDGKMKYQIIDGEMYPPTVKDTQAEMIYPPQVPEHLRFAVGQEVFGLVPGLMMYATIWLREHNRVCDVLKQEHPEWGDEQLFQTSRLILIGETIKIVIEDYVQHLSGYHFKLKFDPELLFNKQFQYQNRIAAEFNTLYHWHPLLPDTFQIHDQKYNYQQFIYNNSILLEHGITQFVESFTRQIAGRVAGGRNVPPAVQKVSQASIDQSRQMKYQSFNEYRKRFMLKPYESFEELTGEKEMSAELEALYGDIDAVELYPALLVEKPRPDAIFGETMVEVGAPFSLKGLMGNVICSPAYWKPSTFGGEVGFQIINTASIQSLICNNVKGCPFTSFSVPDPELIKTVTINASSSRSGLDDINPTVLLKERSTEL

Regarding `CN(C)C(=O)Cn1cc(-c2nc([C@@](C)(c3ccc(-c4cnc(N)nc4)cc3)C3CC3)no2)cn1` [BI 665915], the residual activity is 109% in data set [1]; 64% in data set [2]; 95% in [3]; 129% in data set [5]; 99.5% in data set [6]; 96% in [7]. For the same compound, the residual activity in data set [8] is 91.5%; in [9] it was 96%. The activity at 20 µM in data set [4] is listed as 85% (not active).
